Assay results: PubChem BioAssay (NCI)
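48-hour exposure; five concentrations; linearly interpolated endpoints. Abbreviation: GI50, concentration required for 50% inhibition of growth. TGI marks complete inhibition of growth.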

Columns and labels:
Assay in all cases: NCI tumour cell line growth inhibition, 48 h
CCRF-CEM leukemia = system: CCRF-CEM leukemia
HCT-116 colon = system: HCT-116 colon
NCI-H226 lung = system: NCI-H226 lung
SF-268 CNS = system: SF-268 CNS
RXF 393 renal = system: RXF 393 renal
CAKI-1 renal = system: CAKI-1 renal
DU-145 prostate = system: DU-145 prostate
NCI-H460 lung = system: NCI-H460 lung
M14 melanoma = system: M14 melanoma
SNB-75 CNS = system: SNB-75 CNS

SMILES	TGI (CCRF-CEM leukemia)	TGI (HCT-116 colon)	TGI (NCI-H226 lung)	TGI (SF-268 CNS)	TGI (RXF 393 renal)	TGI (CAKI-1 renal)	TGI (DU-145 prostate)	TGI (NCI-H460 lung)	TGI (M14 melanoma)	TGI (SNB-75 CNS)	GI50 (CCRF-CEM leukemia)	GI50 (DU-145 prostate)	GI50 (HCT-116 colon)	GI50 (NCI-H460 lung)	GI50 (NCI-H226 lung)	GI50 (M14 melanoma)	GI50 (SF-268 CNS)	GI50 (RXF 393 renal)	GI50 (SNB-75 CNS)	GI50 (CAKI-1 renal)
N#CCCN(CCC#N)c1ccc(/C=C(\NC(=O)c2cc([N+](=O)[O-])ccc2Cl)C(=O)Nc2ccccc2)cc1	> 100 µM	> 100 µM	> 100 µM	> 100 µM	> 100 µM	> 100 µM	–	–	–	–	–	–	–	–	–	–	–	–	–	–
O=C(O)c1cc(=O)c2c(OCC(O)COc3cccc4oc(C(=O)O)cc(=O)c34)cccc2o1	> 100 µM	> 100 µM	> 100 µM	> 100 µM	> 100 µM	> 100 µM	> 100 µM	> 100 µM	> 100 µM	> 100 µM	–	–	–	–	–	–	–	–	–	–
Cc1ccc([N+](=O)[O-])cc1S(=O)(=O)Nc1ccc(C2=NOC(c3cccs3)C2)cc1 (configuration not stated)	50.2 µM	28.1 µM	> 100 µM	99.2 µM	22.4 µM	70.4 µM	52.7 µM	28.8 µM	20.8 µM	61.8 µM	–	–	–	–	–	–	–	–	–	–
c1ccc(C(NC2=NCCO2)c2ccccc2)cc1	> 10 µM	> 10 µM	> 10 µM	> 10 µM	> 10 µM	> 10 µM	> 10 µM	> 10 µM	> 10 µM	> 10 µM	–	–	–	–	–	–	–	–	–	–
CCOC(=O)C(Cc1cn(C(C)=O)c2ccccc12)P(=O)(OCC)OCC (configuration not stated)	–	> 100 µM	> 100 µM	–	–	> 100 µM	> 100 µM	> 100 µM	> 100 µM	> 100 µM	–	–	–	–	–	–	–	–	–	–
C/C(=N\NC(=S)N(C)C)c1nc2ncccc2[nH]1	–	> 100 µM	2.05 µM	> 100 µM	> 100 µM	3.75 µM	> 100 µM	> 100 µM	–	> 100 µM	–	–	–	–	–	–	–	–	–	–
COc1cc2cc(C(=O)Nc3cc4n(n3)-c3ccccc3C4)[nH]c2c(OC)c1OC	3.42 µM	9.65 µM	3.95 µM	15.1 µM	50 µM	6.3 µM	14.3 µM	7.1 µM	6.86 µM	13.9 µM	–	–	–	–	–	–	–	–	–	–
O=C(Nc1ccc(-n2cc(-c3ccncc3)c(-c3ccc(O)c(Cl)c3)n2)cc1)Nc1ccc(Cl)c(C(F)(F)F)c1	22.3 µM	10.8 µM	51.8 µM	26.7 µM	3.56 µM	19.8 µM	18 µM	11.4 µM	6.33 µM	14.3 µM	3.2 µM	4.99 µM	3.15 µM	3.33 µM	21.4 µM	2.48 µM	4.36 µM	1.67 µM	2.59 µM	3.17 µM
CCCn1cc2c(SC)nc(SC)nc2n1	> 100 µM	> 100 µM	> 100 µM	> 100 µM	> 100 µM	> 100 µM	–	> 100 µM	> 100 µM	> 100 µM	–	–	–	–	–	–	–	–	–	–
O=c1/c(=C/c2ccc([N+](=O)[O-])o2)sc2n1[C@@H](c1ccc(Cl)cc1)C=C(c1cc(F)c(Cl)cc1Cl)N=2	> 100 µM	18.3 µM	32.4 µM	33.4 µM	28.5 µM	> 100 µM	39.9 µM	24.3 µM	29.1 µM	> 100 µM	–	–	–	–	–	–	–	–	–	–
COc1ccc(-c2cc(-c3ccc(O)cc3O)c(C#N)c(=O)[nH]2)cc1	56.7 µM	38.7 µM	55.3 µM	73.5 µM	35.4 µM	64.1 µM	> 100 µM	59.7 µM	35.4 µM	–	–	–	–	–	–	–	–	–	–	–
C/C(=N\NC(=S)NCCCCNC(=S)N/N=C(\C)c1ccccn1)c1ccccc1	–	81.5 µM	> 23.6 µM	> 36.5 µM	> 23.1 µM	> 100 µM	> 50 µM	4.71 µM	–	9.92 µM	–	–	–	–	–	–	–	–	–	–
COc1ccc(C(O)(c2ccccc2)c2nccc3ccccc23)cc1 (configuration not stated)	8.98 µM	> 100 µM	–	> 100 µM	44.2 µM	> 100 µM	> 100 µM	38.9 µM	8.34 µM	–	–	–	–	–	–	–	–	–	–	–
CCOC(=O)CCSc1nc2ccc(I)cc2c(=O)n1Cc1ccccc1	67.4 µM	> 74.2 µM	> 100 µM	> 91.2 µM	> 100 µM	9.59 µM	> 100 µM	> 100 µM	> 100 µM	> 100 µM	–	–	–	–	–	–	–	–	–	–
COc1cc2c(cc1OCCCOS(C)(=O)=O)N=C[C@@H]1CCCN1C2=O	> 100 µM	> 100 µM	> 100 µM	> 100 µM	> 100 µM	> 100 µM	> 100 µM	> 100 µM	> 100 µM	> 100 µM	52.8 µM	–	–	–	–	–	–	–	94.7 µM	–
Cn1ncc2c(Nc3cccc(Cl)c3)nc(Nc3cccc(Cl)c3)nc21	2.89 µM	> 58.3 µM	> 72.3 µM	55.8 µM	11.6 µM	30.8 µM	40 µM	> 30.9 µM	> 58.4 µM	31.1 µM	–	–	–	–	–	–	–	–	–	–
O=C(O)CCc1nc2ccccc2[nH]1	> 100 µM	> 100 µM	> 100 µM	> 100 µM	> 100 µM	> 100 µM	> 100 µM	> 100 µM	> 100 µM	> 100 µM	–	–	–	–	–	–	–	–	–	–
